These results are taken from article PMC9674596, “Origin of acetylcholine antagonism in ELIC, a bacterial pentameric ligand-gated ion channel” (Communications Biology, 2022).

The target in one experiment is T1, ELIC A75D/F133W (Dickeya chrysanthemi, UniProt P0C7B7, A75D/F133W/INS163G).
T1 construct: expressed in transfected cells; host or cells: Xenopus laevis oocytes injected with cRNA; DNA construct synthesised by Twist Bioscience
As to the kind of experiment: Two-electrode voltage clamp, A75D/F133W double mutant ELIC expressed in Xenopus laevis oocytes. Format: cell-based, Erwinia chrysanthemi. The procedure:
Stage V-VI Xenopus laevis oocytes were isolated[72] and deflocculated enzymatically in ND96 buffer without Ca^2+ (96 mM NaCl, 2 mM KCl, 1 mM MgCl2, 2 mM pyruvate, 5 mM HEPES, pH 7.4), but supplemented with 1 mg/mL collagenase B and 1 mg/mL trypsin inhibitor, for 2 h at room temperature under constant stirring. The deflocculation buffer was then gradually removed by washing the oocytes in ND96 buffer (96 mM NaCl, 2 mM KCl, 1 mM MgCl2, 1 mM CaCl2, 2 mM pyruvate, 5 mM HEPES, pH 7.4) for several iterations. The oocytes were then allowed to stir for an additional hour at room temperature under constant stirring with the buffer being periodically replaced until clear. To obtain optimal receptor expression, individually selected and healthy oocytes were injected with 0.2 ng cRNA for wild-type ELIC and 5 ng cRNA for mutants. Subsequently, oocytes were incubated for one day at 16 °C in ND96^+ buffer (96 mM NaCl, 2 mM KCl, 1 mM MgCl2, 1 mM CaCl2, 2 mM pyruvate, and 5 mM HEPES at pH 7.6). After expression, injected oocytes were placed in a RC-1Z oocyte chamber (Harvard Apparatus; Hamden, CT) containing buffer (pH 7.4) composed of 150 mM NaCl, 0.5 mM BaCl2, 10 mM HEPES, and 1 mM dithiothreitol or 1 µM atropine if cysteamine, or ACh, was used in the experiment, respectively. The presence of the reducing agent, dithiothreitol, ensures that the sulfhydryl group of cysteamine remains reduced.
Once in the oocyte chamber, whole-cell currents were recorded using a two-electrode voltage-clamp apparatus (OC-725C oocyte clamp; Harvard Apparatus), with a buffer flow rate of 5–10 mL min^−1. Currents in response to various additions of cysteamine and/or ACh, were measured with the transmembrane voltage clamped at −60 mV. Dose response curves for each wild-type and mutant ELIC were acquired from at least five oocytes in two different batches.
For identifying the half maximal effective concentration (EC50) and apparent Hill coefficient (nH) of cysteamine, dose response curves were created by taking the magnitude of each cysteamine-activated peak current (I) and normalizing this value to the maximal peak current in the presence of excess agonist (Imax). The log (base 10) cysteamine concentration in molar was then plotted on the x-axis against the fractional response (I/Imax) on the y-axis. The data was fitted using nonlinear regression with a variable slope sigmoidal dose response (Eq. 1, below) in GraphPad Prism (v.8.0.0).1 y=1/1+10^nH^LogEC50−X
Individual EC50 and Hill coefficients were averaged for each oocyte to derive a mean ± standard deviation. For identifying a half maximal inhibitory concentration (IC50) and Hill coefficient of ACh, a concentration of cysteamine corresponding to its EC50 was used in the presence of increasing concentrations of ACh. Peak currents elicited from cysteamine with ACh (I) were normalized to the initial cysteamine peak current in the absence of ACh (Io). The log (base 10) ACh concentration was then plotted on the x-axis against the fractional response (I/Io) on the y-axis. Subsequent steps were the same as above for deriving a cysteamine EC50 and Hill coefficient. The individual IC50 and Hill coefficients were averaged for each oocyte to derive a mean ± one standard deviation. Lastly, to identify four normalized response values, cysteamine at the 10% maximal effective concentration (EC10), 20% maximal effective concentration (EC20), EC50 and 90% maximal effective concentration (EC90), was applied in the presence and absence of 25 mM ACh. The cysteamine-activated peak current with 25 mM ACh, was normalized to the cysteamine-activated peak current without ACh.

In a further experiment the target is T2, ELIC A75D (Dickeya chrysanthemi, UniProt P0C7B7, A75D/INS163G).
T2 construct: expressed in transfected cells; host or cells: Xenopus laevis oocytes injected with cRNA from ELIC-pTLN
Put plainly: Two-electrode voltage clamp, A75D mutant ELIC expressed in Xenopus laevis oocytes. The experiment is classed as cell-based, Erwinia chrysanthemi. The note with it: A75D.

The mark [1] stands for this setting: cysteamine as agonist, read-out: Activation EC50.
Setting [2] is: read-out: Cysteamine concentration corresponding to EC90.

For `NCCS` [cysteamine], the “Cysteamine concentration corresponding to EC10” value on ELIC A75D/F133W was 3.9 mM; at ELIC A75D it was 0.6 mM. Besides, the “Cysteamine concentration corresponding to EC20” value on ELIC A75D/F133W is recorded as 4.8 mM; at ELIC A75D, 0.9 mM. Also, the “Activation by amine (whole-cell response)” value at ELIC A75D/F133W (25 mM amine, cysteamine at its EC50) was “still activated”. Moreover, the “Activation Hill coefficient” value was 3.8 ± 0.3 at ELIC A75D/F133W (cysteamine as agonist) and 2.3 ± 0.5 at ELIC A75D (cysteamine as agonist). In addition, the figures for the EC50 at ELIC A75D/F133W (setting [1]) and on ELIC A75D (setting [1]) were 6.9 ± 0.7 mM and 1.6 ± 0.4 mM, respectively. For the same compound, the EC90 was 12.3 mM on ELIC A75D/F133W (setting [2]) and 4.2 mM on ELIC A75D (setting [2]). Also, the “Increase in EC50 for cysteamine relative to wild-type” value at ELIC A75D stood at 3 fold. Further, at ELIC A75D (ACh 0.5 mM to 50 mM, followed by 5 mM cysteamine), the “Peak current on application of ligand alone” value is “robust peak current”.
